Experimental findings from patent US9708628B2, “Cationic lipid having improved intracellular kinetics” (NOF CORPORATION, priority 2011, dated 2017) are described below.

The nature of data set [1]: Particle size and surface potential of siRNA MENDs prepared by t-BuOH injecting method. It counts as physicochemical. The note with it: siRNA MEND, cationic lipid/cholesterol=70/30, DMG-PEG2000 3%. How it is done: (§1) A lipid solution in t-BuOH with a composition of cationic lipid/cholesterol=70/30, DMG-PEG2000 3% and a total lipid amount of 3000 nmol/400 μL (7.5 mM) was prepared in a 1.7 mL tube. In a separate 1.7 mL tube, an siRNA solution was prepared by mixing an siRNA aqueous solution containing siRNA (160 μg) and 20 mM malate buffer (pH 4.00, 30 mM NaCl) to total 50 μL. With vigorous stirring of the lipid solution, the siRNA solution was gradually added dropwise, and the mixed solution was taken in a 1 mL syringe. Then, 20 mM malate buffer (pH 4.00, 30 mM NaCl, 2 mL) was added into a 5 mL tube, and the mixed solution was gradually injected with vigorous stirring. Thereafter, the mixture was further diluted with PBS (7 mL) and centrifuged at 1000 g, 30° C. for 10 min in Amicon Ultra-15-100K to a volume of less than 1.5 mL. PBS (15 mL) was added, and the solution was centrifuged again to about 500-1000 μL. Finally, the MEND solution was adjusted by diluting with PBS to the object lipid concentration.
The particle size and surface potential of various MENDs were measured according to the method described in [Experimental Example 2] and the results are shown in Table 6.

Data set [2] relates to Factor VII (FVII). Briefly: Knockdown effect of siRNA-encapsulated MEND prepared by t-BuOH injecting method. It counts as in vivo, ICR mice. As to conditions: varying doses of siRNA, tail vein. How it is done: A MEND solution prepared by the method shown in [Experimental Example 28] was administered to 4-week-old male ICR mice at 3 mg siRNA/kg from the tail vein, and blood was collected 24 hr later. This blood sample was centrifuged at 1000 g, 10 min, 4° C., and the supernatant was recovered to obtain plasma. The amount of Factor VII (FVII) in the plasma was quantified by BIOPHEN FVII CHROMOGENIC ASSAY (HYPHEN BioMed).
as §1
MENDs prepared by the method shown in Experimental Example 32 were administered by a method similar to the method shown in Experimental Example 30 with varying doses of siRNA, and the knockdown effect was evaluated. The results are shown in FIG. 35, FIG. 36, and FIG. 37.

In data set [3] the test system is Factor VII (FVII). Briefly: Knockdown effect of chemically-modified siRNA-encapsulated MEND. It is filed as in vivo, ICR mice. Here is the method: A MEND (Lipid/siRNA ratio=250) prepared using the compound of Example 13 and by the method shown in Experimental Example 32, and a MEND having the ratio of lipid and siRNA of Lipid/siRNA ratio=2250 were prepared. Furthermore, of Lipid/siRNA ratio=2250, MENDs wherein siRNA was replaced by chemically-modified one (2′-F) were prepared, and the knockdown effect was evaluated by the method shown in Experimental Example 33.

Turning to `Cc1c(C)c2c(c(C)c1OC(=O)CCC(=O)OCCCC1CCN(CCSSCCN3CCC(CCCOC(=O)CCC(=O)Oc4c(C)c(C)c5c(c4C)CCC(C)(CCCC(C)CCCC(C)CCCC(C)C)O5)CC3)CC1)CCC(C)(CCCC(C)CCCC(C)CCCC(C)C)O2` (stereo not shown) [TS-P4C3], in data set [1], the PDI stood at 0.09, the “size (nm)” value amounted to 123 nm and the “zeta (mV)” value is given as −6.6 mV. Besides, the “FVII expression level (knockdown effect)” value in the data set with Factor VII (FVII) [2] is given as “highest knockdown effect”.

With `Cc1c(C)c2c(c(C)c1OC(=O)CCC(=O)OCCCCC1CCN(CCSSCCN3CCC(CCCCOC(=O)CCC(=O)Oc4c(C)c(C)c5c(c4C)CCC(C)(CCCC(C)CCCC(C)CCCC(C)C)O5)CC3)CC1)CCC(C)(CCCC(C)CCCC(C)CCCC(C)C)O2` (stereo not shown) [TS-P4C4], the “knockdown effect with chemically-modified siRNA (2′-F)” value with Factor VII (FVII) [3] (Lipid/siRNA ratio=2250) is listed as “further enhanced the knockdown effect”. Also, in the data set with Factor VII (FVII) [3] (unmodified siRNA), the “knockdown effect, Lipid/siRNA ratio 2250 versus 250” value was “knockdown effect was enhanced”. Besides, in data set [1], the PDI came out at 0.11, the “size (nm)” value came out at 123 nm and the “zeta (mV)” value is given as −6.9 mV. Further, the “FVII expression level (knockdown effect)” value with Factor VII (FVII) [2] is “highest knockdown effect”.
